The nature of data set [1]: Solubility of Drugs in single solvent alcohols. It is filed as physicochemical. The protocol: Briefly, the indicated NSAID was weighed and added to a beaker. To each beaker, incremental amounts of the indicated solvent was weighed and added. The beakers were sealed with aluminum foil and placed at room temperature or in a 35 C water bath for 20-30 minutes. They beakers were shaken frequently to mix the contents. After 20-30 minutes the solvent alcohols were examined. If a single phasic solution was not yet achieved, an additional aliquot of the solvent was added and the cycle was repeated until complete solvation had occurred.

A short description of data set [2]: Super-solvent effect (Drug solubilized by combinations of solvent alcohols). Type of data set: physicochemical. The protocol:
Methods. First, the amount of each solvent alcohol required to solubilize one gram of NSAID was determined (saturation amount). Next, each combination of 2, 3 and 4 solvent alcohols were made using the saturation amounts determined by the first step. Finally, the amount of drug that could be solubilized by the solvent systems (i.e. the solvent alcohol combinations) was determined. The super-solvent effect was determined using this protocol, where percent=actual grams solubilized divided by the predicted grams (based upon the first step) expressed as percent increase (e.g. if twice the predicted amount could be solubilized, the super-solvent effect would be % 100.

The nature of data set [3]: Maximal NSAID and water concentrations in PG/PEG solvent systems. Type of data set: physicochemical. Further details: B maximum: unit not given here. From the text: With the teaching herein, useful Drug and water concentrations can be determined for a given solvent system. Such concentrations can be described by the equation W=mD+b, where W is a water concentration, D is the Drug concentration, b is the y intercept, and m is the slope.

The conditions of data set [4]: cited from earlier work.
The conditions of data set [5]: cited from earlier work. This is another data set of the same source.

Data on twelve molecules can be found in patent US20130243707A1, “TOPICAL COMPOSITIONS” (priority 2006, published 2013).

Each structure is given as a SMILES string.

The term Log P denotes the decadic logarithm of the partition coefficient of the neutral form, usually between octanol and water. Usually pKa stands for the negative logarithm of the acid dissociation constant.

On to `CC(=O)Nc1ccc(O)cc1` [Acetaminophen], for which the “Maximum Drug Concentration in single alcohol: EtOH” value (“Maximum Drug Concentration … EtOH” for short) in data set [1] (Solubility at 35 C) was found to be 16.67; in data set [1] (Solubility at Room Temperature), 9.52. The “Maximum Drug Concentration in single alcohol: IPA” value (“Maximum Drug Concentration … IPA” below) in data set [1] (Solubility at 35 C) amounted to 8.33; in data set [1] (Solubility at Room Temperature), 4.35. For the same molecule, the entries for the “Maximum Drug Concentration in single alcohol: PEG” value (from here on “Maximum Drug Concentration … PEG”) in data set [1] (Solubility at 35 C) and in data set [1] (Solubility at Room Temperature) were 10.00 and 5.41, respectively. In addition, the “Maximum Drug Concentration in single alcohol: PG” value (shortened to “Maximum Drug Concentration … PG”) was 10.00 in data set [1] (Solubility at 35 C) and 4.76 in data set [1] (Solubility at Room Temperature). Further, the “Super-solvent Effect” value in data set [2] (EtOH 5 gr, IPA 11 gr) is recorded as 21.6%; in data set [2] (PEG 400 9 gr, EtOH 5 gr) it was 60.0%; in data set [2] (PEG 400 9 gr, EtOH 5 gr, IPA 11 gr) it was 55.6%; in data set [2] (PEG 400 9 gr, IPA 11 gr), 63.8%; in data set [2] (PG 9 gr, EtOH 5 gr), 21.2%; in data set [2] (PG 9 gr, EtOH 5 gr, IPA 11 gr) it was 14.6%. The “Super-solvent Effect” value in data set [2] (PG 9 gr, IPA 11 gr) was 22.2%; in data set [2] (PG 9 gr, PEG 400 9 gr) it was 22.0%; in data set [2] (PG 9 gr, PEG 400 9 gr, EtOH 5 gr) it was 41.8%; in data set [2] (PG 9 gr, PEG 400 9 gr, EtOH 5 gr, IPA 11 gr), 52.5%; in data set [2] (PG 9 gr, PEG 400 9 gr, IPA 11 gr) it was 43.3%. Further, the B maximum in data set [3] (PG/PEG 1/3, b of y = −5.7055x + b) worked out at 100; in data set [3] (PG/PEG 1/4, b of y = −6.4787x + b), 118; in data set [3] (PG/PEG 2/2, b of y = −11.52x + b), 154; in data set [3] (PG/PEG 3/4, b of y = −7.7243x + b) it was 124; in data set [3] (PG/PEG 4/3, b of y = −6.3927x + b), 102.
For `CCCCOc1ccc(CC(=O)NO)cc1` [Bufexamac], in data set [1] (Solubility at Room Temperature), the “Maximum Drug Concentration … EtOH” value was found to be 1.23 and the “Maximum Drug Concentration … IPA” value stood at 0.62.
As to `O=C(O)Cc1ccccc1Nc1c(Cl)cccc1Cl` [Diclofenac], the entries for the “Maximum Drug Concentration … EtOH” value in data set [1] (Solubility at 35 C) and in data set [1] (Solubility at Room Temperature) were 14.29 and 11.11, respectively. Further, the “Maximum Drug Concentration … PEG” value in data set [1] (Solubility at 35 C) was determined as 8.33; in data set [1] (Solubility at Room Temperature), 7.69. In addition, the “Maximum Drug Concentration … PG” value in data set [1] (Solubility at 35 C) and in data set [1] (Solubility at Room Temperature) was 14.29 throughout. Besides, the “Super-solvent Effect” value is 81.0% in data set [2] (PEG 400 11 gr, EtOH 6 gr); 90.9% in data set [2] (PG 6 gr, EtOH 6 gr); 62.2% in data set [2] (PG 6 gr, PEG 400 11 gr); 54.8% in data set [2] (PG 6 gr, PEG 400 11 gr, EtOH 6 gr).
On to `COc1ccc2c(c1)c(CC(=O)O)c(C)n2C(=O)c1ccc(Cl)cc1` [Indomethacin], for which, in data set [1] (Solubility at Room Temperature), the “Maximum Drug Concentration … EtOH” value amounted to 0.25, the “Maximum Drug Concentration … IPA” value is given as 0.10, the “Maximum Drug Concentration … PEG” value was 0.05 and the “Maximum Drug Concentration … PG” value was determined as 0.05. Further, the “Log P” value in data set [4] is 3.08.
As for `COc1ccc2cc([C@H](C)C(=O)O)ccc2c1` [Naproxen], the “Water Added Until Precipitation Occurs” value is listed as 3.5 gm in data set [3] (Naproxen 0.1215 gm, PG 2 gm, PEG 400 2 gm); 3.5 gm in data set [3] (Naproxen 0.1755 gm, PG 1 gm, PEG 400 3 gm); 5 gm in data set [3] (Naproxen 0.1755 gm, PG 4 gm, PEG 400 3 gm); 6.5 gm in data set [3] (Naproxen 0.2295 gm, PG 3 gm, PEG 400 4 gm); 4.5 gm in data set [3] (Naproxen 0.27 gm, PG 1 gm, PEG 400 4 gm); 1 gm in data set [3] (Naproxen 0.324 gm, PG 2 gm, PEG 400 2 gm). The “Water Added Until Precipitation Occurs” value in data set [3] (Naproxen 0.405 gm, PG 2 gm, PEG 400 2 gm) worked out at 0.5 gm; in data set [3] (Naproxen 0.468 gm, PG 1 gm, PEG 400 3 gm), 1 gm; in data set [3] (Naproxen 0.468 gm, PG 4 gm, PEG 400 3 gm) it was 2.5 gm; in data set [3] (Naproxen 0.54 gm, PG 1 gm, PEG 400 4 gm), 2.5 gm; in data set [3] (Naproxen 0.585 gm, PG 1 gm, PEG 400 3 gm), 0.5 gm; in data set [3] (Naproxen 0.585 gm, PG 4 gm, PEG 400 3 gm) it was 1.5 gm. Also, the “Water Added Until Precipitation Occurs” value in data set [3] (Naproxen 0.612 gm, PG 3 gm, PEG 400 4 gm) was 2.5 gm; in data set [3] (Naproxen 0.675 gm, PG 1 gm, PEG 400 4 gm), 1 gm; in data set [3] (Naproxen 0.765 gm, PG 3 gm, PEG 400 4 gm), 1.5 gm. Further, the “Drug concentration range obtained at saturation” value in data set [3] (PG and PEG 50% to 82%, PG to PEG ratio 0.33 to 1.3) was “up to 13%”. Besides, the “B maximum (intercept of water versus Naproxen line)” value in data set [3] (PG/PEG 1/3) stood at 52.794; in data set [3] (PG/PEG 1/4) it was 47.637; in data set [3] (PG/PEG 2/2), 54.158; in data set [3] (PG/PEG 3/4), 52.964; in data set [3] (PG/PEG 4/3) it was 56.913.
Regarding `O=C(O)c1cccnc1Nc1cccc(C(F)(F)F)c1` [Niflumic], the “Maximum Drug Concentration … EtOH” value in data set [1] (Solubility at Room Temperature) is given as 3.23.
In the case of `C=CCOc1ccc(CC(=O)O)cc1Cl` [alclofenac], the pKa in data set [5] is reported as 4.26. For the same molecule, in data set [4], the log partition coefficient (Log P) was 2.47.
Regarding `O=C(O)Cc1ccc(-c2ccccc2)cc1` [felbinac], the pKa in data set [5] is listed as 4.29.
With `O=C(O)c1ccccc1Nc1cccc(C(F)(F)F)c1` [flufenamic acid], in data set [4], the “Log P” value was 5.62.
For the molecule `Cc1cccc(Nc2ccccc2C(=O)O)c1C` [mefenamic acid], in data set [5], the pKa was 3.69. Moreover, the “Log P” value in data set [4] is given as 5.12.
Take `CN1C(C(=O)Nc2ccccn2)=C(O)c2ccccc2S1(=O)=O` [piroxicam]: in data set [5], the pKa is recorded as 3.6. In addition, in data set [4], the “Log P” value is on record as 1.8.
Consider `CC(C(=O)O)c1ccc(C(=O)c2ccccc2)s1` (stereo not drawn) [tiaprofenic acid], for which the pKa in data set [5] is 4.05.
